{"source": "patent US8642654B2", "about": "“Hydroxybutyrate ester and medical use thereof” (ISIS Innovation Limited, priority 2011, dated 2014)", "key": {"[1]": {"tested_on": "Cocaine-and-Amphetamine Responsive Transcript (CART)", "assay": "Neuropeptide levels in sectioned rat brain by antibody techniques: CART", "format": "in vivo", "details": "14 days ketone diet", "experimental": "(§1) In a 14-day study, Wistar rats weighing about 250 g were randomized to one of three diet groups (n=6 rats/group) and administered either a carbohydrate (“starch”) diet, a normal human (“fat”) diet or a ketone ester diet, in which the ketone ester used was the ketone monoester (3R)-hydroxybutyl (3R)-hydroxybutyrate diet (i.e. the compound of the invention). The three diets were eaten in pair fed meals for 3 hours per day. The composition of the diets expressed in terms of g/100 g are summarised in Table 5 and the compositions expressed in terms of % of calories are summarised in Table 6. After 14 days of feeding with the fat, carbohydrate or ketone ester diet, the levels of various neuropeptides known to be associated with decreased food intake and decreased appetite (“anorexigenic” peptides) were surveyed in the paraventricular nucleus (PVN) area of the hypothalamus and in the hippocampus of the rat brain. The neuropeptide levels were measured using standard antibody techniques performed on sectioned brains of the rats. The results are shown in the micrographs of FIGS. 3 to 9. The peptides measured were Brain Derived Neurotropic Factor (BDNF), melanocyte-stimulating hormone receptor 4 (MC4R), and Cocaine-and-Amphetamine Responsive Transcript (CART). […]"}, "[2]": {"assay": "28-day study, isonitrogenous and isocaloric diets (Example 4)", "format": "in vivo, Wistar rats", "details": "for total amount of weight gained compared with CHOD and NHD groups: 28-day study; for feed intake during days 22 to 29: KD; for body weight on day 28: KD group", "description": "In a 28-day study, male and female Wistar rats weighing approximately 350 g were randomized to one of three diet groups (n=10 males and 10 females/group) and administered either a carbohydrate diet (CHOD), a normal human diet (NHD), or a ketone diet (KD). The diets were isonitrogenous and isocaloric, differing only in their relative amounts of carbohydrate, fat, and ketones. In the KD, the ketone used was the ketone monoester (3R)-hydroxybutyl (3R)-hydroxybutyrate diet (i.e. the compound of the invention). In the KD, approximately ⅓ of the energy was derived from the ketone ester, while in the NHD and CHOD, ⅓ of the energy was derived from palmitate and starch, respectively."}, "[3]": {"assay": "14-day pair fed meal diets: food consumption and weight gain (Example 5)", "format": "in vivo, Wistar rats", "details": "rats, 14-day study", "experimental": "(§2) In a 14-day study, Wistar rats weighing about 250 g were randomized to one of three diet groups (n=6 rats/group) and administered either a carbohydrate (“starch”) diet, a normal human (“fat”) diet or a ketone ester diet, in which the ketone ester used was the ketone monoester (3R)-hydroxybutyl (3R)-hydroxybutyrate diet (i.e. the compound of the invention). The three diets were eaten in pair fed meals for 3 hours per day. The composition of the diets expressed in terms of g/100 g are summarised in Table 5 and the compositions expressed in terms of % of calories are summarised in Table 6."}, "[4]": {"tested_on": "free nucleotide ratios and concentrations in the brain", "assay": "Calculated free nucleotide ratios and concentrations in freeze blown brain after 14 days of diet", "format": "in vivo, Wistar rats", "experimental": "as §2\nAfter the rats were fed on the diets for 14 days, the ratios of free nucleotide and the free nucleotide concentrations were determined. Measurements were performed on the freeze blown brain and metabolite ratios of the rats calculated as previously described (Veech, R. L. et al, J. Biol. Chem. 254:6538-47, 1979). The values in Table 8 are given as means±SEM (n=6 to 8). Cytosolic pH was assumed to be 7.2."}, "[5]": {"tested_on": "Krebs cycle and CoA intermediates in the brain", "assay": "Brain Krebs cycle and CoA intermediates after 14 days of diet", "format": "in vivo, Wistar rats", "details": "rat brain", "experimental": "In a 14-day study, Wistar rats weighing about 250 g were randomized to one of three diet groups (n=6 rats/group) and administered either a carbohydrate (“starch”) diet, a normal human (“fat”) diet or a ketone ester diet, in which the ketone ester used was the ketone monoester (3R)-hydroxybutyl (3R)-hydroxybutyrate diet (i.e. the compound of the invention). The three diets were eaten in pair fed meals for 3 hours per day. The composition of the diets expressed in terms of g/100 g are summarised in Table 5 and the compositions expressed in terms of % of calories are summarised in Table 6. After eating the 3 diets in pair fed meals for 3 hours per day for 14 days, the levels of various Krebs cycle and CoA intermediates in the brain were measured enzymatically and by mass spectrometry using standard techniques. […] Malonyl CoA is a metabolite known to be associated with decreased food intake; it is known to decrease appetite (Wolfgang, M. J. and Lane, M. D. (2006) J. Biol. Chem. 281, 37265-37269). […] The values in Table 7 are means, in μmoles/g wet weight, ±SEM with n=6 to 8. CoA's are given in nmol/g wet weight."}, "[6]": {"tested_on": "melanocyte-stimulating hormone receptor 4 (MC4R)", "assay": "Neuropeptide levels in sectioned rat brain by antibody techniques: MC4R", "format": "in vivo", "details": "rat hypothalamus, 14 days ketone diet", "experimental": "as §1"}, "[7]": {"assay": "In vivo testing, meal-fed diets (Example 3)", "details": "meal-fed rats, n=8 per group", "description": "Example 2 was repeated using the same foods as shown in Table 1 but where the rats were meal-fed. […] The daily body weight (in grams per rat per day) was plotted against time for rats in each of the three diet groups over the first six days of the test. One-way analysis of variance with Tukey-Kramer multiple comparison test was used (n=8 per group, **p<0.001). […] The body weight of rats in the group fed the carbohydrate diet remained high throughout the feeding process. […] The daily food intake (in grams per rat per day) was plotted against time for rats in each of the three diet groups over the first seven days of the test. Again, one-way analysis of variance with Tukey-Kramer multiple comparison test was used (n=8 per group, ***p<0.001)."}, "[8]": {"assay": "Blood levels of (3R)-hydroxybutyrate after oral ingestion", "format": "in vivo", "details": "ingested orally"}, "[9]": {"tested_on": "Brain Derived Neurotropic Factor (BDNF)", "assay": "Neuropeptide levels in sectioned rat brain by antibody techniques: BDNF", "format": "in vivo", "details": "rat hypothalamus, ketone diet", "experimental": "as §1"}, "[10]": {"assay": "In vivo testing, calorie-controlled diets, 66 days (Example 2)", "set-up": "species or system Wistar rats", "experimental": "Young adult male Wistar rats (starting weight 70 g) (Harlan UK Limited) (n=50) were housed at approximately 20° C. on a 12h:12h reverse light:dark photoperiod. Rats were fed standard laboratory chow (Chow) (SDS, Essex, UK) prior to the starting the experimental diets: (a) normal “Western” diet (Western) in which 34% of kilocalories came from added palmitate (n=20), (b) high-carbohydrate (CHO) in which 70% of kilocalories came from added corn starch (n=10) or (c) (3R)-hydroxybutyl (3R)-hydroxybutyrate diet (monoester) in which 30% of kilocalories came from (3R)-hydroxybutyl (3R)-hydroxybutyrate (n=20). The macronutrient compositions of the three diets are shown below. All diets contained the same energy in kCal/g but had different macronutrients. Rats were individually housed one week prior to the start of the experiments, so that they were accustomed to living in a solitary environment by the time the study started. They consumed standard laboratory chow ad libitum until they were placed on their experimental diet. Rats fed the Western and carbohydrate diets were fed the same number of calories as those consumed by the monoester-fed rats the previous day. All rats were fed for 66 days. After this period the rat body, heart and fat pad weights were determined."}, "[11]": {"details": "rat brain, 14 days ketone ester diet, mean ± SEM"}, "[12]": {"details": "rat brain, 14 days ketone ester diet, mean ± SEM, p < 0.05 vs starch and vs fat"}, "[13]": {"details": "14 days ketone ester diet, mean ± SEM"}, "[14]": {"details": "rats, monoester diet, 66 days, n = 20"}}, "note": "Entries after “also recorded” stand apart in the source; their conditions may differ. Marks after values point to notes of the source that are not given here.", "data": [{"smiles": "C[C@@H](O)CCOC(=O)C[C@@H](C)O", "note": "[Monoester, (3R)-hydroxybutyl (3R)-hydroxybutyrate]", "values": [{"measurement": "CART-positive cell bodies in VMH, ARC and ME areas of the hypothalamus (FIG. 7)", "setting": "[1]", "result": "highest numbers"}, {"measurement": "CART positive cell bodies in the PVN, compared to fat and carbohydrate diets (FIGS. 6, 8, 9)", "setting": "[1]; rat hypothalamus", "result": "highest level; also recorded: more CART; also recorded: significantly greater number; also recorded: highest density"}, {"measurement": "total amount of weight gained compared with CHOD and NHD groups", "setting": "[2]; female rats", "result": "significantly less"}, {"measurement": "feed intake during days 22 to 29", "setting": "[2]; female rats", "result": "175 ± 12", "unit": "g"}, {"measurement": "body weight on day 28", "setting": "[2]; female rats", "result": "240 ± 13", "unit": "g"}, {"measurement": "total amount of weight gained compared with CHOD and NHD groups", "setting": "[2]; male rats", "result": "significantly less"}, {"measurement": "feed intake during days 22 to 29", "setting": "[2]; male rats", "result": "239 ± 17", "unit": "g"}, {"measurement": "body weight on day 28", "setting": "[2]; male rats", "result": "390 ± 26", "unit": "g"}, {"measurement": "food consumption compared with starch or fat diets", "setting": "[3]", "result": "consume less food"}, {"measurement": "weight gain compared with starch or fat diets", "setting": "[3]", "result": "gain less weight"}, {"measurement": "brain phosphorylation potential compared with carbohydrate and fat diets", "setting": "[4]; after 14 days of diet", "result": "significantly higher"}, {"measurement": "ΔG′ of ATP hydrolysis compared with carbohydrate and fat diets", "setting": "[4]; after 14 days of diet", "result": "significantly higher"}, {"measurement": "EhCoQ/CoQH2 from Fum/Succ", "setting": "[4]; [11]", "result": "28.9 ± 0.6", "unit": "mV"}, {"measurement": "Free [ADP] cytosol from PCr/Cr", "setting": "[4]; [11]", "result": "0.027 ± 0.001", "unit": "µM/g"}, {"measurement": "Free [AMP] cytosol from Kmyokinase", "setting": "[4]; [11]", "result": "0.0004 ± 0.00003", "unit": "µM/g"}, {"measurement": "Free [Mg^2+] from [Cit]/[Isocit]", "setting": "[4]; [11]", "result": "1.5 ± 0.13", "unit": "mM"}, {"measurement": "Free [NAD^+]/[NADH] mitochochondria from αKGxNH4^+/Glut", "setting": "[4]; [11]", "result": "0.80 ± 0.17"}, {"measurement": "Free [NAD^+]/[NADPH] cytosol from αKGxCO2/IsoCit", "setting": "[4]; [11]", "result": "0.026 ± 0.003"}, {"measurement": "Free [NAD^+]/[NADH] cytosol from Lactate/Pyruvate", "setting": "[4]; rat brain, 14 days ketone ester diet, mean ± SEM, cytosolic pH assumed 7.2", "result": "357 ± 27"}, {"measurement": "Phosphorylation Potential from Kg + g (Eqn 1)", "setting": "[4]; [12]", "result": "38,100 ± 3,390 ^a, b M^−1"}, {"measurement": "ΔG′ ATP", "setting": "[4]; [12]", "result": "−59.6 ± 0.2 ^a, b kJ/mol"}, {"measurement": "malonyl CoA levels in the brain compared with other diets", "setting": "[5]; 14 days", "result": "higher"}, {"measurement": "Acetyl CoA", "setting": "[5]; [13]", "result": "6.43 ± 0.53", "unit": "µM"}, {"measurement": "Fumarate", "setting": "[5]; [13]", "result": "0.0745 ± 0.0058", "unit": "μmoles/g wet weight"}, {"measurement": "Isocitrate", "setting": "[5]; [13]", "result": "0.0093 ± 0.008", "unit": "μmoles/g wet weight"}, {"measurement": "L-Malate", "setting": "[5]; [13]", "result": "0.181 ± 0.013", "unit": "μmoles/g wet weight"}, {"measurement": "Succinate", "setting": "[5]; [13]", "result": "0.0864 ± 0.0033", "unit": "μmoles/g wet weight"}, {"measurement": "Succinyl CoA", "setting": "[5]; [13]", "result": "0.910 ± 0.207", "unit": "µM"}, {"measurement": "α-ketoglutarate", "setting": "[5]; [13]", "result": "0.140 ± 0.008", "unit": "μmoles/g wet weight"}, {"measurement": "Calc Oxaloacetate", "setting": "[5]; 14 days ketone ester diet, mean ± SEM, calculated", "result": "0.0026 ± 0.0004", "unit": "μmoles/g wet weight"}, {"measurement": "Citrate", "setting": "[5]; 14 days ketone ester diet, mean ± SEM, n=6 to 8", "result": "0.222 ± 0.010", "unit": "μmoles/g wet weight"}, {"measurement": "Malonyl CoA", "setting": "[5]; 14 days ketone ester diet, mean ± SEM, p < 0.05 between ketone ester and starch", "result": "1.26 ± 0.13 ^a μM"}, {"measurement": "MC4R positive cell bodies in pm and mpd regions of the PVN, compared to fat diet (FIGS. 4 and 5)", "setting": "[6]", "result": "significantly higher density; also recorded: more MC4R activity; also recorded: Significantly greater numbers; also recorded: significantly denser area"}, {"measurement": "daily food intake compared with carbohydrate and Western diets (FIG. 2)", "setting": "[7]; first seven days", "result": "ate less food; also recorded: consistently reduced"}, {"measurement": "daily body weight compared with carbohydrate and Western diets (FIG. 1)", "setting": "[7]; first six days", "result": "Significantly reduced; also recorded: lost more weight"}, {"measurement": "blood levels of (3R)-hydroxybutyrate", "setting": "[8]", "result": "measurably raised"}, {"measurement": "BDNF-positive cell bodies in the paraventricular nucleus (PVN), compared to fat and carbohydrate diets (FIG. 3)", "setting": "[9]", "result": "significantly more; also recorded: more BDNF; also recorded: significantly greater number"}, {"measurement": "fat pad weight compared with Western or carbohydrate diet", "setting": "[10]; end of the 66-day test", "result": "significantly lower"}, {"measurement": "fat to body weight compared with other diets", "setting": "[10]; end of the 66-day test", "result": "significantly lower"}, {"measurement": "Final body weight", "setting": "[10]; rats, monoester diet (30% of kilocalories), calorie-controlled, 66 days, n = 20", "result": "213 ± 5", "unit": "g"}, {"measurement": "Heart to body weight", "setting": "[10]; [14]", "result": "0.29 ± 0.01", "unit": "%"}, {"measurement": "Heart weight", "setting": "[10]; [14]", "result": "0.64 ± 0.02", "unit": "g"}, {"measurement": "Epididymal fat", "setting": "[10]; rats, monoester diet, 66 days, n = 20, *P < 0.05", "result": "1.48 ± 0.2* g"}, {"measurement": "Epididymal fat to body weight", "setting": "[10]; rats, monoester diet, 66 days, n = 20, *P < 0.05, in % (unit assumed)", "result": "0.69 ± 0.1*"}]}]}
